Data on 1 compound can be found in patent publication US5252562A, “Acetohydroxamic compound and complexes pharmaceutical compositions containing them and processes of preparation and use” (Gruenenthal GmbH, priority 1991, dated 1993).

The structures appear in SMILES notation. pIC50: −log10 of the molar value. Converted amounts (≈) assume the structure as drawn.

The target in one data set is T1, cyclooxygenase (Ovis aries, UniProt P05979).
T1 sequence (P05979 25-600): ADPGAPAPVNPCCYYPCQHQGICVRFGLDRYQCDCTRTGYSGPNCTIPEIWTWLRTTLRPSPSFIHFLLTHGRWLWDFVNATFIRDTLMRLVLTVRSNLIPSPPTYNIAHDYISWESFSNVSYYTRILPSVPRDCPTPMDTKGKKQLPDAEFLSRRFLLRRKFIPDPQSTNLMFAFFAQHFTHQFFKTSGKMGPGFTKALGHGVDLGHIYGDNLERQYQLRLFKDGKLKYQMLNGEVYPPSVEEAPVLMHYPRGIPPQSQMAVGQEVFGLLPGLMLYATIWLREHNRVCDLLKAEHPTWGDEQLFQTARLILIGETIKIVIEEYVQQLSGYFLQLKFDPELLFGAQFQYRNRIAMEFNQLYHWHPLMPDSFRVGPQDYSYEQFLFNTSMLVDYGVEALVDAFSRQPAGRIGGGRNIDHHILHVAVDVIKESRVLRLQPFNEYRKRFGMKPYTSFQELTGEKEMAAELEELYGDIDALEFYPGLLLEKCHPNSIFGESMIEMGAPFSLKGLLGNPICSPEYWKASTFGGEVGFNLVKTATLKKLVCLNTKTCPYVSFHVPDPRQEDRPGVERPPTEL
The data set is described as follows: activity of cyclooxygenase in sheep seminal vesicle microsomes ([14C]-arachidonic acid, TLC). Format: biochemical. The note with it: potassium phosphate buffer pH 7.0. As to the method:
The effect of the acetohydroxamic acid compound of formula I on the activity of cyclooxygenase was tested using a suspension of sheep seminal vesicle microsomes in […] of potassium phosphate buffer of pH 7.0 which was incubated either with N-hydroxy-N-(thien-3-yl)methyl-acetamide or with a solvent only and [^14 C]-arachidonic acid. The IC50 values, i.e. the concentrations causing an inhibition of 50% of cyclooxygenase were determined by thin layer chromatography using a TLC-linear-analyzer.

Another data set relates to guinea pigs. The data set is described as follows: antiasthmatic effect: ovalbumin-induced bronchoconstriction in anesthetized, ventilated, passively sensitized guinea pigs (Konzett-Roessler). It is filed as in vivo, guinea pig. The procedure:
The antiasthmatic effect of the compound according to the invention was tested in anesthetized and ventilated guinea pigs. In order to induce an asthmatic reaction, the animals were passively sensitized with a single intraperitoneal injection of antiovalbumin serum. After 48 hours the asthmatic reaction was elicited by intravenous challenge with 0.2 mg/kg of ovalbumin. The immediately resulting bronchoconstriction was measured as an increase in overflow according to the Konzett-Roessler method for a period of 10 minutes (Naunyn Schiedeberg's Arch. Exp. Path. Pharma. Vol. 195, 71-74 (1940)). Effects caused by histamine, serotonin and sympathic counterreaction were eliminated by intravenous pretreatment with 2.15 mg/kg of mepyramine, […] of propranolol, 4.64 mg/kg of atropine and 1 mg/kg of methysergide, all given 5 minutes before challenge. N-Hydroxy-N-(thien-3-yl)methyl-acetamide was orally administered 60 minutes before, intravenously administered 30 minutes before, and locally administered 2 minutes before the administration of ovalbumin.

In the next data set the test system is cell-free 5 lipoxygenase. The data set is described as follows: 5 lipoxygenase activity polarographically measured in 10,000×g supernatant of homogenized rat basophilic leukemia cells; release from complex. It is filed as biochemical. The conditions noted are these: RBL 10,000×g supernatant, arachidonic acid 75 μM, 5 minutes at 35° C.; complex of Example 3 versus free compound. As to the method:
To determine the rate and the extent of the release of N hydroxy-[…])methyl-acetamide from the complex prepared according to Example 3, the 5 lipoxygenase activity of cell-free 5 lipoxygenase was polarographically measured with oxygen electrodes in 10,000×g supernatant from homogenized rat basophilic leukemia cells (RBL i cells). After incubation of the 10,000×g supernatant with arachidonic acid (75 μM), adenosine triphosphate (4 mM), glutathione (4 mM), and either N hydroxy-[…])methyl-acetamide or a solvent for 5 minutes at 35° C., the lipoxygenase reaction was initiated by addition of calcium chloride and plotted simultaneously. The evaluation included the duration of the lag-phase as well as the initial rate of the reaction after the lag-phase. […] A significant amount of the acetohydroxamic acid compound is fully available in the biological test system even when the compound is originally administered in the form of a complex.

For another data set, the system named is 5-lipoxygenase. The data set is described as follows: ex vivo iLTB4-formation in whole blood of rats after oral administration (bioavailability). Set-up: species or system rat (Wistar strain, male). The procedure: The bioavailability of the compound of formula I was characterized by means of an ex vivo biochemical assessment method described by Tateson et al. in Brit. J. Pharmacol. 528 (1988): N-Hydroxy-N-(thien-3-yl)methyl-acetamide was orally administered in a dose of 21.5 mg/kg to male rats (Wistar strain). One hour later blood was taken from the rats in lethal CO2 -narcosis. Aliquots of the blood were incubated for 30 minutes at 37° C. in a water bath with addition of calcium ionophore A 23 187 to an end concentration of 15 μg/ml. At the end of the incubation the samples were centrifuged to collect the cell free plasma. The concentration of the immunoreactive LTB4 (iLTB4 ng/ml) in each plasma sample was determined by radioimmunoassay (^3 H-LTB4 -RIA, Amersham) by means of a LTB4 -standard curve in diluted rat plasma. To determine the percent inhibition of ex vivo iLTB4 -formation in whole blood of rats treated with the compound of formula I, rats orally treated with an appropriate vehicle solution were included in all experiments, aliquots of their blood were run in parallel and were processed in the same manner as described. The mean iLTB4 formation per ml plasma of these vehicle treated rats served as the 100% value of normal 5-lipoxygenase activity. The percent inhibition of the ex vivo iLTB4 -formation after oral administration of the compound of formula I was calculated according to the following formula: […]
where Q represents the mean iLTB4 content in ng […] per ml plasma of the rats treated with the compound of formula I and C represents the mean iLTB4 content in ng iLTB4 per ml plasma of rats treated only with the vehicle.

Data set [1] relates to isolated tracheal strips of guinea pigs. The data set is described as follows: anti-anaphylactic effect: ovalbumin-induced anaphylactic constrictions of isolated tracheal strips. The note with it: Cavia porcellus; tracheal strips of actively sensitized guinea pigs, with mepyramine and indomethacin, 37° C.; Example 3 based on the complexed N-hydroxy-N-(thien-3-yl)methyl-acetamide content; read-out: IC50-value, inhibition of 50% of the anaphylactic constrictions. Format: cell-based, guinea pig. The procedure: The anti-anaphylactic effect of N-hydroxy-[…])methyl-acetamide was tested using an in vitro model. […] The organs were connected to isometric force transducers. After incubation with mepyramine (elimination of histamine) and indomethacin (inhibition of cyclooxygenase resulting in an increase of the anaphylactic reaction) ovalbumin was added to the organ bath in cumulatively increasing concentrations. The resulting anaphylactic constrictions were inhibited by N-hydroxy-[…])methyl-acetamide which was added to the organ bath before the anaphylactic constrictions were elicited.

Another data set is described as follows: toxicity. The note with it: observed only at far higher doses than therapeutic or prophylactic doses.
The next data set deals with T2, 5 lipoxygenase (Homo sapiens, UniProt P09917).
T2 construct: endogenous in cells; host or cells: freshly drawn, heparinized human whole blood (blood leukocytes; the cell type is own knowledge)
T2 sequence (P09917 1-674): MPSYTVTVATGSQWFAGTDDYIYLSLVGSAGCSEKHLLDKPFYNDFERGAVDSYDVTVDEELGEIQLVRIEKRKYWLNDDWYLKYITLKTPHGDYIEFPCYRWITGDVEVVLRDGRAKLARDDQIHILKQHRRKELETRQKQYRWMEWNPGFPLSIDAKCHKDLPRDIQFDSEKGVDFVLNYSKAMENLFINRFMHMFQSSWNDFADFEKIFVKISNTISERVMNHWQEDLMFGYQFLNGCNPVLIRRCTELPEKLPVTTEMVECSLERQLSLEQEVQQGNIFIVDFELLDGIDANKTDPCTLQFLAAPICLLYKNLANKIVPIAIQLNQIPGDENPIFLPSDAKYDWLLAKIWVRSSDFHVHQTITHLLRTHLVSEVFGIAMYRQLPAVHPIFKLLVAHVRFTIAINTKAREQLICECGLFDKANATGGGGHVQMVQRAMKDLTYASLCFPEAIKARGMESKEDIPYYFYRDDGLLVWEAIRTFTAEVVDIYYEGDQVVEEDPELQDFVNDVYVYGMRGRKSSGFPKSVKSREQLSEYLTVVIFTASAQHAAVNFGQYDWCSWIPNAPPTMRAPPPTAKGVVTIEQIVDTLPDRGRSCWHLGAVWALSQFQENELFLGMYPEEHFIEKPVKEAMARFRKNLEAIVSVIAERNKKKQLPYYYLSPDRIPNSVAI
As to the kind of experiment: inhibition of 5 lipoxygenase in human blood (A23187-induced iLTB4 formation, RIA). Format: cell-based. The conditions noted are these: heparinized human blood, A23187 15 μg/ml, 30 minutes at 37° C., iLTB4 by RIA; read-out: IC50-value, concentration causing an inhibition of 50% of 5 lipoxygenase. As to the method: To determine the inhibition of 5 lipoxygenase, aliquots of freshly drawn, heparinized human blood were incubated at 37° C. in a water bath with addition of either N Hydroxy-N-(thien-3-yl)methyl-acetamide in different concentrations or a solvent. After 5 minutes the calcium ionophore A23187 was added to an end concentration of 15 μg/ml blood, and the incubation was continued for 30 minutes at 37° C. Then the samples were centrifuged to collect the cell free plasma. The content of the immunoreactive leucotriene B4 (iLTB4), in each sample was determined by radioimmunoassay "RIA" (^3 H-LTB4 -RIA, Amersham) with reference to a LTB4 standard curve and was calculated as ng iLTB4 /ml plasma. The percentage inhibition caused by the acetohydroxamic acid compound of formula I at various concentrations was calculated in comparison to the aliquots incubated with solvent only. N-hydroxy-N-(thien-3-yl)methyl-acetamide has an IC50 -value, i.e. the concentration causing an inhibition of 50% of 5 lipoxygenase, of 0.3 μmolar.

Another data set is described as follows: solubility. Format: physicochemical.

For `CC(=O)N(O)Cc1ccsc1` [Example 1, N-hydroxy-N-(thien-3-yl)methyl-acetamide], the “IC50-values for the inhibition of cyclooxygenase compared with IC50-values for 5-lipoxygenase” value against cyclooxygenase is listed as “significantly higher than the IC50 -values for the inhibition of 5-lipoxygenase”. For the same compound, the inhibition of bronchoconstriction in the data set on guinea pigs (21.5 mg/kg oral, 60 minutes before ovalbumin) was 42%. For the same compound, the “resorption of the acetohydroxamic acid compound” value in the data set with guinea pigs (oral 21.5 mg/kg (free) versus intravenous 21.5 mg/kg (complex), guinea pigs) is “high resorption”. The “inhibition of the 5 lipoxygenase reaction” value in the data set with cell-free 5 lipoxygenase was “comparable effects”. In the data set with cell-free 5 lipoxygenase, the “prolongation of the lag-phase of the 5 lipoxygenase reaction” value is on record as “comparable effects”. For the same compound, the “percent inhibition of the ex vivo iLTB4-formation” value in the data set on 5-lipoxygenase (21.5 mg/kg oral, male Wistar rats, blood taken one hour later, A23187 15 μg/ml) was 95%. In addition, the oral availability entry with 5-lipoxygenase (oral, 21.5 mg/kg, rats, concluded from ex vivo iLTB4 inhibition) is reported as “excellent oral availability”. Besides, the “calculated dose with a semi-maximum inhibiting effect after oral administration” value with 5-lipoxygenase (oral, rats, ex vivo iLTB4-formation, 60 min) is on record as 5.6 mg/kg. In addition, the pIC50 in data set [1] was 4.99; on 5 lipoxygenase, 6.52. For the same compound, the degree of toxicity entry in “toxicity” was “low degree of toxicity”. The solubility (usually the dissolved amount per volume that the medium holds) in the data set “solubility” (organic solvent or mixture, water/ethanol 4:1 mixture) was 3000 µg/mL (≈ 17.5 mM); in “solubility” (phosphate buffer/ethanol 4:1, organic solvent or mixture, phosphate buffer (pH 7.4)/ethanol, 4:1 mixture) it was 3000 µg/mL (≈ 17.5 mM).
